Experimental data from EPA's ToxValDB 9.5 (doi:10.2903/j.efsa.2017.4887).
In brackets after ≈: the same amount, converted by molar mass.

Assays:
[1] = tested on: Pleurozium sp.; conditions: acute; duration: 72 hours; growth
[2] = tested on: Folsomia candida; conditions: chronic/long-term; duration: 28 days; reproduction
[3] = tested on: Oncorhynchus mykiss; conditions: acute; duration: 96 hours; mortality
[4] = tested on: Argyrosomus sp.; conditions: acute; duration: 96 hours; mortality
[5] = tested on: Cyprinodon variegatus; conditions: chronic/long-term; duration: 100 days; reproduction
[6] = tested on: Neomysis kadiakensis
[7] = tested on: Anas platyrhynchos; conditions: reproductive
[8] = tested on: Colinus virginianus; conditions: acute; oral; mortality
[9] = tested on: Hypoaspis aculeifer; conditions: chronic/long-term; reproduction
[10] = tested on: Apis mellifera; conditions: acute, mortality
[11] = tested on: Rattus norvegicus
[12] = tested on: Bibionidae; conditions: chronic/long-term; duration: 28 days; other
[13] = tested on: Aphidius rhopalosiphi; assay: LR50; higher = less toxic; conditions: not reported; mortality

SMILES | NOEC [1] [mg/L] | NOEC [2] [mg/kg] | LC50 [3] [µg/mL] | LC50 [4] [µg/mL] | NOEC [5] [mg/L] | LC50 ([6]; acute, duration: 96 hours, mortality) [µg/mL] | NOEC ([6]; chronic/long-term, duration: 28 days, reproduction) [mg/L] | NOAEL [7] [mg/kg-day] | LD50 [8] [mg/kg-day] | NOEC [9] [mg/kg] | LD50 ([10]; dermal) [µg/piece] | LD50 ([10]; oral, unspecified) [µg/piece] | LD50 ([11]; acute, oral, mortality) [mg/kg-day] | NOAEL ([11]; chronic, duration: 2 years, organ weight) [mg/kg-day] | NOAEL ([11]; developmental, development) [mg/kg-day] | NOAEL ([11]; reproduction developmental, histopathology: nonneoplastic) [mg/kg-day] | NOEC [12] [mg/L] | LR50 [13] [g/ha]
O=C(O)[C@H]1CO[C@@](Cn2cncn2)(c2ccc(Cl)cc2Cl)O1 (racemic) | 112 | 1000 | – | – | – | – | – | – | – | – | – | – | – | – | – | – | – | –
O=C(O)[C@@H]1CO[C@@](Cn2cncn2)(c2ccc(Cl)cc2Cl)O1 (racemic) | – | 1000 | > 100 | – | – | – | – | – | – | – | – | – | – | – | – | – | – | –
CCCC1COC(Cn2cncn2)(c2ccc(Cl)cc2Cl)O1 (centres undefined) [Propiconazole] | – | – | – | 2.6 (≈ 7.6 µM) | 0.068 | 0.51 (≈ 1.49 µM) | 0.114 | 25.5 | ≥ 2510 | 22.4 | 46.3 | 203 | 550 | 3.6 | 30 | 8.4 | 4 | > 250
